The numbers were not newly measured in patent USRE41289E1, “Ultrashort acting hypnotic barbiturates” (ARYx Therapeutics, Inc., priority 2000, dated 2010), which cites them from elsewhere.

For this series the following is noted: in vivo.

`CN1C(=O)NC(=O)C(C)(C2=CCCCC2)C1=O` (stereo not shown) [hexobarbital]: the half-life of elimination was 2.7 to 7 h.
